Reference: the supplement of paper PMC6965134
± gives the standard deviation of the averaged measurements.

Assay: TIMS collisional cross section (CCS, N2) of the lipid ion; higher = larger ion cross section
Conditions: ionization mode: positive, one isomer drawn

TIMS collisional cross section (sample type: HeLa)	TIMS collisional cross section (sample type: plasma)	TIMS collisional cross section (sample type: Liver)	SMILES
320.5 Å²			CCCCC/C=C\C/C=C\C/C=C\C/C=C\CCCC(=O)OC[C@@H](COC(=O)CCCCCCCCCCCCCCC)OC(=O)CCCCCCCCCCCCCCC [TG 16:0_16:0_20:4] (ion (formula + adduct): [C55H98O6+NH4] 1+)
	307.1 Å²	307.4 Å²	CCCCC/C=C\CCCCCCCC(=O)OC[C@H](COC(=O)CCCCCCC/C=C\CCCCCC)OC(=O)CCCCCCCCCCCCCCC [TG 15:1_16:0_16:1] (ion (formula + adduct): [C50H92O6+NH4] 1+)
320.6 Å²			CCCCCCCCCCCCCCCCCCCC(=O)OC[C@@H](COC(=O)CCCCCCCCCCCCC)OC(=O)CCCCCCCCCCCCCCC [TG 14:0_16:0_20:0] (ion (formula + adduct): [C53H102O6+NH4] 1+)
319.9 Å²	320.25 ± 0.35 Å²	320.7 Å²	CCCCCCCCCCCCCCCCCC(=O)OC[C@@H](COC(=O)CCCCCCCCCCCCCCC)OC(=O)CCCCCCCCCCCCCCC [TG 16:0_16:0_18:0] (ion (formula + adduct): [C53H102O6+NH4] 1+)
323.2 Å²			CCCCCCC/C=C\CCCCCCCC(=O)OC[C@H](COC(=O)CCCCCCC/C=C\CCCCCCCC)OC(=O)CCCCCCC/C=C\CCCCCCCC [TG 17:1_18:1_18:1] (ion (formula + adduct): [C56H102O6+NH4] 1+)
	319.7 Å²	314.1 Å²	CCCCC/C=C\C/C=C\CCCCCCCC(=O)OC[C@@H](COC(=O)CCCCCCCCCCCCCCC)OC(=O)CCCCCCC/C=C\CCCCCCCC [TG 16:0_18:1_18:2] (ion (formula + adduct): [C55H100O6+NH4] 1+)
		341.4 Å²	CCCCC/C=C\C/C=C\CCCCCCCCCC(=O)O[C@H](COC(=O)CCCCCCC/C=C\C/C=C\CCCCC)COC(=O)CCCCCCCCCCCCCCCCCCCCC [TG 18:2_20:2_22:0] (ion (formula + adduct): [C63H114O6+NH4] 1+)
		344.9 Å²	CCCCCCCC/C=C\CCCCCCCC(=O)OC[C@H](COC(=O)CCCCCCCCCCCCCCCCCCCCC)OC(=O)CCCCCCCCCCCCCCCCCC [TG 18:1_19:0_22:0] (ion (formula + adduct): [C62H118O6+NH4] 1+)
	308.6 Å²		CCCC/C=C\CCCCCCCC(=O)OC[C@H](COC(=O)CCCCCCC/C=C\C/C=C\CCCCC)OC(=O)CCCCCCC/C=C\CCCCCCC [TG 14:1_17:1_18:2] (ion (formula + adduct): [C52H92O6+NH4] 1+)
		344.7 Å²	CC/C=C\C/C=C\C/C=C\C/C=C\C/C=C\C/C=C\CCC(=O)OC[C@@H](COC(=O)CCCCCCC/C=C\CCCCCCCC)OC(=O)CCCCCCCCCCCCCCCCCCCCC [TG 18:1_22:0_22:6] (ion (formula + adduct): [C65H112O6+NH4] 1+)
	321.6 Å²	321.6 Å²	CC/C=C\C/C=C\C/C=C\CCCCCCCC(=O)O[C@@H](COC(=O)CCC/C=C\C/C=C\C/C=C\C/C=C\CCCCC)COC(=O)CCCCCCC/C=C\C/C=C\CCCCC [TG 18:2_18:3_20:4] (ion (formula + adduct): [C59H96O6+NH4] 1+)
346.3 Å²	346 Å²		CCCCCCCCCCCCCCCCCCCCCC(=O)OC[C@@H](COC(=O)CCCCCCCCCCCCCCC)OC(=O)CCCCCCCCCCCCCCCCCCCC [TG 16:0_21:0_22:0] (ion (formula + adduct): [C62H120O6+NH4] 1+)
	355.2 Å²	355.9 Å²	CCCCCCCCCCCCCCCCCCCCCC(=O)OC[C@@H](COC(=O)CCCCCCCCCCCCCCCCC)OC(=O)CCCCCCCCCCCCCCCCCCCCC [TG 18:0_22:0_22:0] (ion (formula + adduct): [C65H126O6+NH4] 1+)

Further lines, the molecule ahead of its results:

SMILES	TIMS collisional cross section (sample type: HeLa)	TIMS collisional cross section (sample type: plasma)	TIMS collisional cross section (sample type: Liver)
CCCCCCCC/C=C\CCCCCCCC(=O)O[C@H](COC(=O)CCCCCCCCCCCCCCCC)COP(=O)([O-])OCC[N+](C)(C)C [PC 17:0@_18:1] (ion (formula + adduct): [C43H84NO8P+H] 1+)	291.8 Å²		
CCCCCCCC/C=C\CCCCCCCC(=O)OC[C@@H](COC(=O)CCCCCCCCCCCC)OC(=O)CCCCCCCCCCCCCCC [TG 13:0_16:0_18:1] (ion (formula + adduct): [C50H94O6+NH4] 1+)		309.5 Å²	
CCCCCCCC/C=C\CCCCCCCC(=O)O[C@@H](CO)COC(=O)CCCCCCCCCCCCCCCCC [DG 18:0_18:1_0:0] (ion (formula + adduct): [C39H74O5+NH4] 1+)			269.6 Å²
CC/C=C\C/C=C\C/C=C\C/C=C\C/C=C\C/C=C\CCC(=O)OC[C@H](COP(=O)(O)OCCN)OC(=O)CCCCCCC/C=C\CCCCCC [PE 22:6@_16:1] (ion (formula + adduct): [C43H72NO8P+H] 1+)	275 Å²		
CCCCC/C=C\C/C=C\C/C=C\CCCCC(=O)O[C@H](COC(=O)CCCCCCC/C=C\CCCCCC)COP(=O)([O-])OCC[N+](C)(C)C [PC 16:1@_18:3] (ion (formula + adduct): [C42H76NO8P+H] 1+)	279.2 Å²	280.6 Å²	
CCCCC/C=C\C/C=C\CCCCCCCC(=O)O[C@@H](CO)COC(=O)CCCCCCC/C=C\CCCCCC [DG 16:1_18:2_0:0] (ion (formula + adduct): [C37H66O5+NH4] 1+)		253.8 Å²	253.1 Å²
CCCCC/C=C\C/C=C\CCCCCCCC(=O)O[C@H](COC(=O)CCCCCCCCCCCCCCCC)COP(=O)([O-])OCC[N+](C)(C)C [PC 17:0_18:2] (ion (formula + adduct): [C43H82NO8P+H] 1+)			288.1 Å²
CCCCCCCC/C=C\CCCCCCCC(=O)OC[C@@H](COC(=O)CCCCCCCCCCCC)OC(=O)CCCCCCCCCCCCC [TG 13:0_14:0_18:1] (ion (formula + adduct): [C48H90O6+NH4] 1+)			303.1 Å²
CCCCCC/C=C\CCCCCCCC(=O)OC[C@H](COP(=O)([O-])OCC[N+](C)(C)C)OC(=O)CCCCCCC/C=C\CCCCCCC [PC 16:1_17:1] (ion (formula + adduct): [C41H78NO8P+H] 1+)	281.9 Å²		
CC/C=C\C/C=C\C/C=C\C/C=C\C/C=C\C/C=C\CCC(=O)O[C@H](CO/C=C\CCCCCCCCCCCCCC)COP(=O)([O-])OCC[N+](C)(C)C [PC P- 16:0@_22:6] (ion (formula + adduct): [C46H80NO7P+H] 1+)	291.3 Å²		
CC/C=C\C/C=C\C/C=C\C/C=C\C/C=C\C/C=C\CCC(=O)O[C@H](COC(=O)CCCCCCCCCCCCC)COP(=O)([O-])OCC[N+](C)(C)C [PC 14:0@_22:6] (ion (formula + adduct): [C44H76NO8P+H] 1+)		284.8 Å²	
CC/C=C\C/C=C\C/C=C\C/C=C\C/C=C\C/C=C\CCC(=O)O[C@H](COC(=O)CCCCCCCCCCCCCCC)COP(=O)(O)OCCN [PE 16:0_22:6] (ion (formula + adduct): [C43H74NO8P+H] 1+)	278.6 Å²		
CCCCCC/C=C\CCCCCCCC(=O)OC[C@@H](COC(=O)CCCCCCCCCCC)OC(=O)CCCCCCCCCCC [TG 12:0_12:0_16:1] (ion (formula + adduct): [C43H80O6+NH4] 1+)		284.1 Å²	284.2 Å²
CCCCC/C=C\C/C=C\C/C=C\C/C=C\CCCCCC(=O)O[C@H](COCCCCCCCCCCCCCCCC)COP(=O)([O-])OCC[N+](C)(C)C [PC O- 16:0@_22:4] (ion (formula + adduct): [C46H86NO7P+H] 1+)		296.3 Å²	
CCC/C=C\CCCCCCCC/C=C/[C@@H](O)[C@H](COP(=O)([O-])OCC[N+](C)(C)C)NC(=O)CCCCCCCCCCCCCCCCCCCCC [SM d18:2_22:0@] (ion (formula + adduct): [C45H89N2O6P+H] 1+)		299.9 Å²	
CCCCC/C=C\CCCCCCCC(=O)OC[C@@H](COC(=O)CCCCCCCCCCC)OC(=O)CCCCCCCCCCC [TG 12:0_12:0_15:1] (ion (formula + adduct): [C42H78O6+NH4] 1+)			280.4 Å²
CCCC/C=C\CCCCCCCC(=O)O[C@@H](COC(=O)CCCCCCC/C=C\CCCCCC)COC(=O)CCCCCCCCCCCC [TG 13:0_14:1_16:1] (ion (formula + adduct): [C46H84O6+NH4] 1+)	293.9 Å²		291.9 Å²
CC/C=C\C/C=C\C/C=C\C/C=C\C/C=C\C/C=C\CCC(=O)O[C@H](COC(=O)CCCCCCCCCCCCCCC)COP(=O)(O)OCCN [PE 16:0@_22:6] (ion (formula + adduct): [C43H74NO8P+H] 1+)		279.1 Å²	
CCCCC/C=C\C/C=C\C/C=C\C/C=C\C/C=C\CCC(=O)O[C@H](COC(=O)CCCCCCCCCCCCCCC)COP(=O)([O-])OCC[N+](C)(C)C [PC 16:0_22:5] (ion (formula + adduct): [C46H82NO8P+H] 1+)		293.3 Å²	
CCCCCC/C=C\CCCCCCCC(=O)OC[C@H](CO)OC(=O)CCCCCCC/C=C\CCCCCC [DG 16:1_16:1_0:0] (ion (formula + adduct): [C35H64O5+NH4] 1+)	249 Å²		
CC/C=C\C/C=C\C/C=C\C/C=C\C/C=C\C/C=C\CCC(=O)O[C@H](CO/C=C\CCCCCCCCCCCCCCCCCC)COP(=O)([O-])OCC[N+](C)(C)C [PC P- 20:0@_22:6] (ion (formula + adduct): [C50H88NO7P+H] 1+)	304.8 Å²		
CCCCCCCC/C=C\CCCCCCCC(=O)O[C@H](CO/C=C\CCCCCCCCCCCCCC)COP(=O)([O-])OCC[N+](C)(C)C [PC P- 16:0@_18:1] (ion (formula + adduct): [C42H82NO7P+H] 1+)		287.7 Å²	
